Data reported in the supplement of paper PMC10627819.

What was measured:
Experiment in all cases: fitness (endpoint OD595 vs no drug) (fraction); higher = more growth
B. subtilis 168 = test system: B. subtilis 168
Method in brief: (§1)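 Volumes were 30 µl per well, or 55 µl for S. pneumoniae, in 384-well plates inoculated at OD595 0.01. Media were TSB, LB Lennox or CY at 37 °C, and OD595 was read every 30 min for 14 h with first-reading background subtraction. Fitness is the ratio of optical density at stationary-phase entry to the robust mean of no-drug controls. That ratio is capped at 1.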

S. aureus Newman = test system: S. aureus Newman
Method in brief: as §1

S. pneumoniae D39V = test system: S. pneumoniae D39V
Method in brief: as §1

[1] = first compound 1 µg/mL, partner 1 µg/mL
[2] = first compound 2 µg/mL, partner 1 µg/mL
[3] = first compound 1 µg/mL, partner 2 µg/mL
[4] = first compound 1 µg/mL, partner 8 µg/mL
[5] = first compound 2 µg/mL, partner 2 µg/mL
[6] = first compound 2 µg/mL, partner 8 µg/mL
[7] = first compound 4 µg/mL, partner 2 µg/mL
[8] = first compound 4 µg/mL, partner 4 µg/mL
[9] = first compound 4 µg/mL, partner 8 µg/mL

`O=C(O)[C@H]1/C(=C/CO)O[C@@H]2CC(=O)N21` [Clavulanic acid] + COc1cccc2c1C(=O)c1c(O)c3c(c(O)c1C2=O)C[C@@](O)(C(=O)CO)C[C@@H]3O[C@H]1C[C@H](N)[C@H](O)[C@H](C)O1 [Doxorubicin] was tested, and the fitness (B. subtilis 168; first compound 1.5 µg/mL, partner 0.625 µg/mL) was 0.911, the fitness (B. subtilis 168; first compound 1.5 µg/mL, partner 1.25 µg/mL) was 0.9 and the fitness (B. subtilis 168; first compound 1.5 µg/mL, partner 2.5 µg/mL) was 0.696. For the same compound, the fitness (B. subtilis 168; first compound 3 µg/mL, partner 0.625 µg/mL) was 0.849, the fitness (B. subtilis 168; first compound 3 µg/mL, partner 1.25 µg/mL) was 0.88 and the fitness (B. subtilis 168; first compound 3 µg/mL, partner 2.5 µg/mL) was 0.625. The fitness (B. subtilis 168; first compound 6 µg/mL, partner 0.625 µg/mL) was 0.792, the fitness (B. subtilis 168; first compound 6 µg/mL, partner 1.25 µg/mL) was 0.736 and the fitness (S. aureus Newman; first compound 0.03125 µg/mL, partner 0.625 µg/mL, one replicate) was 0.979. It also gave a fitness (S. aureus Newman; first compound 0.03125 µg/mL, partner 1.25 µg/mL, one replicate) of 0.905, a fitness (S. aureus Newman; first compound 0.03125 µg/mL, partner 2.5 µg/mL, one replicate) of 0.739 and a fitness (S. aureus Newman; first compound 0.0625 µg/mL, partner 0.625 µg/mL, one replicate) of 0.984. The fitness (S. aureus Newman; first compound 0.0625 µg/mL, partner 1.25 µg/mL, one replicate) was 0.883, the fitness (S. aureus Newman; first compound 0.0625 µg/mL, partner 2.5 µg/mL, one replicate) was 0.755 and the fitness (S. aureus Newman; first compound 0.125 µg/mL, partner 0.625 µg/mL, one replicate) was 0.882. The fitness (S. aureus Newman; first compound 0.125 µg/mL, partner 1.25 µg/mL, one replicate) was 0.803, the fitness (S. aureus Newman; first compound 0.125 µg/mL, partner 2.5 µg/mL, one replicate) was 0.753 and the fitness (S. pneumoniae D39V; first compound 0.5 µg/mL, partner 0.25 µg/mL) was 0.933. For the same compound, the fitness (S. pneumoniae D39V; first compound 0.5 µg/mL, partner 0.5 µg/mL) was 0.954, the fitness (S. pneumoniae D39V; first compound 0.5 µg/mL, partner 1 µg/mL) was 0.838 and the fitness (S. pneumoniae D39V; first compound 1 µg/mL, partner 0.25 µg/mL) was 0.885. The fitness (S. pneumoniae D39V; first compound 1 µg/mL, partner 0.5 µg/mL) was 0.853, the fitness (S. pneumoniae D39V; [1]) was 0.813 and the fitness (S. pneumoniae D39V; [2]) was 0.706.

For `Cc1cc(NS(=O)(=O)c2ccc(N)cc2)no1` [Sulfamethoxazol] + CN[C@@H]1[C@H](O[C@H]2[C@H](O[C@H]3[C@H](O)[C@@H](O)[C@H](N=C(N)N)[C@@H](O)[C@@H]3N=C(N)N)O[C@@H](C)[C@]2(O)C=O)O[C@@H](CO)[C@H](O)[C@H]1O [Streptomycin], the fitness (B. subtilis 168; first compound 0.5 µg/mL, partner 2 µg/mL, one replicate) was no less than 1, the fitness (B. subtilis 168; first compound 0.5 µg/mL, partner 4 µg/mL, one replicate) was no less than 1 and the fitness (B. subtilis 168; first compound 0.5 µg/mL, partner 8 µg/mL, one replicate) was 0.0922. It also gave a fitness (B. subtilis 168; [3]) of 0.903, a fitness (B. subtilis 168; [4]) of 0.045 and a fitness (B. subtilis 168; [5]) of 0.9. For the same compound, the fitness (B. subtilis 168; [6]) was 0.0312, the fitness (B. subtilis 168; [7]) was 0.888 and the fitness (B. subtilis 168; [8]) was 0.153. The fitness (B. subtilis 168; [9]) was 0.0185, the fitness (S. aureus Newman; [1]) was 0.98 and the fitness (S. aureus Newman; [3]) was 0.968. For the same compound, the fitness (S. aureus Newman; [2]) was 0.939, the fitness (S. aureus Newman; [5]) was 0.999 and the fitness (S. aureus Newman; first compound 2 µg/mL, partner 8 µg/mL, one replicate) was 0.913. For the same compound, the fitness (S. aureus Newman; first compound 4 µg/mL, partner 1 µg/mL) was 0.956, the fitness (S. aureus Newman; [7]) was 0.93 and the fitness (S. aureus Newman; first compound 4 µg/mL, partner 8 µg/mL, one replicate) was 0.876. For the same compound, the fitness (S. aureus Newman; first compound 8 µg/mL, partner 2 µg/mL, one replicate) was 0.973, the fitness (S. aureus Newman; first compound 8 µg/mL, partner 4 µg/mL, one replicate) was 0.964 and the fitness (S. aureus Newman; first compound 8 µg/mL, partner 8 µg/mL, one replicate) was 0.897. For the same compound, the fitness (S. pneumoniae D39V; [3]) was 0.962, the fitness (S. pneumoniae D39V; first compound 1 µg/mL, partner 4 µg/mL) was 0.932 and the fitness (S. pneumoniae D39V; [4]) was 0.877. It also gave a fitness (S. pneumoniae D39V; first compound 1 µg/mL, partner 16 µg/mL, one replicate) of 0.763, a fitness (S. pneumoniae D39V; [5]) of 0.962 and a fitness (S. pneumoniae D39V; first compound 2 µg/mL, partner 4 µg/mL) of 0.932. For the same compound, the fitness (S. pneumoniae D39V; [6]) was 0.908, the fitness (S. pneumoniae D39V; first compound 2 µg/mL, partner 16 µg/mL, one replicate) was 0.78 and the fitness (S. pneumoniae D39V; [7]) was 0.932. It also gave a fitness (S. pneumoniae D39V; [8]) of 0.944, a fitness (S. pneumoniae D39V; [9]) of 0.95 and a fitness (S. pneumoniae D39V; first compound 4 µg/mL, partner 16 µg/mL, one replicate) of 0.79.

For `O=C(O)[C@H]1/C(=C/CO)O[C@@H]2CC(=O)N21` [Clavulanic acid] + CC(C1CCC(C(O1)OC2C(CC(C(C2O)OC3C(C(C(CO3)(C)O)NC)O)N)N)N)NC [Gentamicin], the fitness (B. subtilis 168; first compound 1.5 µg/mL, partner 0.0625 µg/mL, main component drawn) was 0.884, the fitness (B. subtilis 168; first compound 3 µg/mL, partner 0.0625 µg/mL, main component drawn) was 0.859 and the fitness (B. subtilis 168; first compound 6 µg/mL, partner 0.0625 µg/mL, main component drawn) was 0.737. The fitness (B. subtilis 168; first compound 6 µg/mL, partner 0.25 µg/mL, main component drawn) was 0.118, the fitness (S. aureus Newman; first compound 0.03125 µg/mL, partner 1 µg/mL, one replicate, main component drawn) was 0.92 and the fitness (S. aureus Newman; first compound 0.03125 µg/mL, partner 2 µg/mL, one replicate, main component drawn) was no less than 1. The fitness (S. aureus Newman; first compound 0.03125 µg/mL, partner 4 µg/mL, one replicate, main component drawn) was 0.768, the fitness (S. aureus Newman; first compound 0.0625 µg/mL, partner 1 µg/mL, one replicate, main component drawn) was 0.947 and the fitness (S. aureus Newman; first compound 0.0625 µg/mL, partner 2 µg/mL, one replicate, main component drawn) was 0.893. For the same compound, the fitness (S. aureus Newman; first compound 0.0625 µg/mL, partner 4 µg/mL, one replicate, main component drawn) was 0.566, the fitness (S. aureus Newman; first compound 0.125 µg/mL, partner 1 µg/mL, one replicate, main component drawn) was 0.872 and the fitness (S. aureus Newman; first compound 0.125 µg/mL, partner 2 µg/mL, one replicate, main component drawn) was 0.835. For the same compound, the fitness (S. aureus Newman; first compound 0.125 µg/mL, partner 4 µg/mL, one replicate, main component drawn) was 0.388, the fitness (S. pneumoniae D39V; first compound 0.5 µg/mL, partner 2 µg/mL, main component drawn) was 0.96 and the fitness (S. pneumoniae D39V; first compound 0.5 µg/mL, partner 4 µg/mL, main component drawn) was 0.955. The fitness (S. pneumoniae D39V; first compound 0.5 µg/mL, partner 8 µg/mL, main component drawn) was 0.932, the fitness (S. pneumoniae D39V; first compound 1 µg/mL, partner 2 µg/mL, main component drawn) was 0.902 and the fitness (S. pneumoniae D39V; first compound 1 µg/mL, partner 4 µg/mL, main component drawn) was 0.896. The fitness (S. pneumoniae D39V; first compound 1 µg/mL, partner 8 µg/mL, main component drawn) was 0.885, the fitness (S. pneumoniae D39V; first compound 2 µg/mL, partner 2 µg/mL, main component drawn) was 0.795 and the fitness (S. pneumoniae D39V; first compound 2 µg/mL, partner 4 µg/mL, main component drawn) was 0.8. For the same compound, the fitness (S. pneumoniae D39V; first compound 2 µg/mL, partner 8 µg/mL, main component drawn) was 0.787.
